The text below walks through data of patent US20260199287A1, “LIPO-HYDROXAMIC ACID DERIVATIVE AND PHARMACEUTICAL USE THEREOF” (MediciBIO Co., Ltd, priority 2022, published 2026).

One data set relates to ABCB6. Briefly: Real-time PCR, ABCB6 mRNA. It is filed as cell-based, human. The following applies: corneal dystrophy-like environment. As to the method: (§1) To identify the antioxidant mechanism of the lipo-hydroxamic acid derivative prepared above, real-time PCR was performed to detect the mRNA expression levels of the antioxidant enzymes downstream of Nrf2. First, human corneal endothelial cells were cultured at 3×10^5 cells per well in a 6-well plate coated with FNC Coating Mix for 18 to 24 hours, and the samples were treated. Four hours after the sample treatment, the corneal dystrophy-like environment was induced using the same method as described in Example 3-2. Twenty-four hours after inducing the corneal dystrophy-like environment, RNA was isolated from the cells using an RNA extraction kit (Bioneer, Daejeon), and cDNA was synthesized from […] of RNA using RT PreMix (Bioneer). Subsequently, real-time PCR was performed using GoTaq mater mix (Promega) containing SYBR green solution at 95° C. for 2 minutes, followed by 35 cycles at 95° C. for 15 seconds and at 60° C. for 1 minute.
Background: Quantitative PCR measures a nucleic acid by following its amplification.

Data set [1] in a line: Stability as an eye drop composition (HPLC peak area). It is filed as physicochemical. The following applies: for Peak area(%) Sample 1 / Peak area(%) Total amount of decomposed products: HPLC. On the procedure:
In order to identify the stability of the lipo-hydroxamic acid derivative prepared above as an eye drop composition, the ratio (peak area, % o) of the active ingredient and decomposed product of the sample (Sample 1) was determined via HPLC analysis.

A further data set concerns collagen I. Briefly: Real-time PCR, collagen I mRNA. It counts as cell-based, human. To be noted: corneal dystrophy-like environment. On the procedure: as §1
To identify the effect of the lipo-hydroxamic acid derivative prepared above on the expression of fibrosis- and cellular degeneration-related factors in corneal endothelial cells, real-time PCR was performed to detect mRNA expression levels of the fibrosis marker N-cadherin, and the cellular degeneration markers collagen I and fibronectin. The real-time PCR was performed in the same manner as in Example 5-2 above.

A further data set relates to Nrf2. Briefly: Nrf2 protein expression in corneal tissue in vivo (Western blot). Set-up: species or system rat. The following applies: 0.1% and 0.3% eye drops; compared to control (0.02% benzalkonium). As to the method: (§2) To identify a mechanism of antioxidant activity of the lipo-hydroxamic acid derivative prepared above, Western blot was performed to detect protein expression of nuclear factor erythroid-2-related factor 2 (Nrf2; NCBI Gene ID: 4780) which is an antioxidant transcription factor. First, human corneal endothelial cells were cultured at 3×10^5 cells per well in a 6-well plate coated with FNC Coating Mix for 18 to 24 hours, and the samples were treated. Four hours after the sample treatment, the corneal dystrophy-like environment was induced in accordance with the method described in Example 3-2. […] Protein concentration in the supernatant was determined using a BCA kit (Thermo Fisher Scientific, MA, USA). […]
To determine the effect of the sample on oxidative stress, animal experiments were conducted using Sprague-Dawley rats (purchased from Bio Link). […] To determine whether oxidative stress was induced, the H2O2 level, an indicator of oxidative stress, was measured in the anterior aqueous humor and corneal tissue using the Amplex Red Hydrogen Peroxide/Peroxidase assay kit (Invitrogen, MA, USA) according to the manufacturer's instructions. Afterwards, the animal model received 10 μL drops (single dose) of the sample (Sample 1) at a dose of 0.1% or 0.3% for 24 hours, including pretreatment, three times a day for 3 days, and then the H2O2 level in the anterior aqueous humor was measured. […]

The test system of the next data set is Sprague-Dawley rats. Briefly: Antioxidant activity in vivo, H2O2 level after benzalkonium-induced corneal oxidative stress. More on the design: species or system rat. The following applies: 0.1% and 0.3% eye drops, 10 μL, three times a day for 3 days; compared to control (0.02% benzalkonium). As to the method:
To determine the effect of the sample on oxidative stress, animal experiments were conducted using Sprague-Dawley rats (purchased from Bio Link). To induce oxidative stress in the cornea of an animal model, the anterior chamber of the right eye was punctured using a syringe equipped with a 30G needle, and then the needle was inserted into the corneal limbus to inject 0.02% benzalkonium (BAK), a known oxidative stress inducer. The ocular surface was subsequently rinsed with sterile saline. To determine whether oxidative stress was induced, the H2O2 level, an indicator of oxidative stress, was measured in the anterior aqueous humor and corneal tissue using the Amplex Red Hydrogen Peroxide/Peroxidase assay kit (Invitrogen, MA, USA) according to the manufacturer's instructions. Afterwards, the animal model received 10 μL drops (single dose) of the sample (Sample 1) at a dose of 0.1% or 0.3% for 24 hours, including pretreatment, three times a day for 3 days, and then the H2O2 level in the anterior aqueous humor was measured. Additionally, proteins were extracted from the harvested corneal tissue, and Western blot was performed in the same manner as in Example 5-1 to examine the expression of the Nrf2 protein. […]

Data set [2] has as its system nuclear factor erythroid-2-related factor 2 (Nrf2). Briefly: Western blot of Nrf2 protein expression. It is filed as cell-based, human. To be noted: compared to the control; corneal dystrophy-like environment. On the procedure: To identify a mechanism of antioxidant activity of the lipo-hydroxamic acid derivative prepared above, Western blot was performed to detect protein expression of nuclear factor erythroid-2-related factor 2 (Nrf2; NCBI Gene ID: 4780) which is an antioxidant transcription factor. First, human corneal endothelial cells were cultured at 3×10^5 cells per well in a 6-well plate coated with FNC Coating Mix for 18 to 24 hours, and the samples were treated. Four hours after the sample treatment, the corneal dystrophy-like environment was induced in accordance with the method described in Example 3-2. Twenty-four hours after induction of the corneal dystrophy-like environment, the cells were washed with phosphate-buffered saline (PBS) and lysed using RIPA lysis buffer (GenDEPOT) containing protease inhibitor cocktail tablets (GenDEPOT, TX, USA). The cell lysates were centrifuged at 13,000 rpm at 4° C. for 10 minutes to obtain the supernatant. Protein concentration in the supernatant was determined using a BCA kit (Thermo Fisher Scientific, MA, USA). Equal amounts of protein were mixed with 5x SDS sample buffer and boiled for 5 minutes, followed by gel electrophoresis. The separated proteins were transferred to a nitrocellulose membrane (GenDEPOT), and nonspecific antibody binding was blocked by incubating the membrane in 5% skim milk at room temperature for 1 hour. […]
A general note: In western blotting, separated proteins are transferred to a membrane and probed.

The next data set concerns cleaved caspase-3. Briefly: Western blot of cleaved caspase-3. It counts as cell-based, human. The following applies: compared to the control group; environment induced 24 hours after sample treatment. On the procedure:
as §2
To identify the effect of the lipo-hydroxamic acid derivative prepared above on apoptosis in corneal endothelial cells, Western blot was performed to detect the protein expression of cleaved caspase-3 which is a major protease involved in apoptosis. […] The anti-cleaved caspase-3 antibody (Asp175; Cell Signaling Technology) was used as the primary antibody, and the cleaved caspase-3 expression was detected by a chemiluminescence image analysis system.

For another data set, the system named is Smad2/3. Briefly: Western blot of Smad2/3 phosphorylation. It counts as cell-based, human. To be noted: compared to the control group (corneal dystrophy-mimicking).

Turning to `O=C(CCCCC1CCSS1)NOCCO` (stereo not shown) [Sample 1, 5-[1,2]dithiolan-3-yl-pentanoic acid (2-hydroxy-ethoxy)-amide], the “mRNA expression of ABCB6” value in the data set with ABCB6 is “significantly increased”. For the same molecule, the “Peak area(%) Sample 1” value amounted to 99.36% in data set [1] (Day 1), 99.20% in data set [1] (Day 2), 99.36% in data set [1] (Day 3) and 99.72% in data set [1] (Early stage). The “Peak area(%) Total amount of decomposed products” value in data set [1] (Day 1) came to 0.62%; in data set [1] (Day 2), 0.80%; in data set [1] (Day 3) it was 0.64%; in data set [1] (Early stage) it was 0.28%. The “stability in a liquid phase” value in data set [1] (up to day 3) is recorded as “good stability”. The “mRNA expression of collagen I” value in the data set on collagen I was “significantly decreased in a concentration-dependent manner”. In addition, the “Nrf2 expression in corneal tissue” value with Nrf2 was “significantly increased depending on the concentration of the sample”. In the data set with Sprague-Dawley rats, the “decrease of H2O2 in the anterior aqueous humor” value is 40-70%. The Nrf2 protein expression entry in data set [2] is reported as “significantly increased”. For the same molecule, the “protein expression of cleaved caspase-3” value with cleaved caspase-3 was “significantly decreased in a concentration-dependent manner”. In addition, the “phosphorylation of Smad2/3 protein” value in the data set on Smad2/3 is “significantly decreased”.
